Data: patent US10604555B2, “GIP derivatives and uses thereof” (priority 2018, dated 2020)
Read-outs that look alike come from different tables or passages of the source. Side-chain parts run from the residue outwards. [ ]: non-standard residue; d: D form. The star is where a group is joined. C20 diacid = O=C(O)CCCCCCCCCCCCCCCCCCC(=O)*; Nle = CCCC[C@H](N)C(=O)O; AEEA = NCCOCCOCC(=O)O; Aib = CC(C)(N)C(=O)O

Assays:
[1] = cited from earlier work
[2] = ThT fibrillation assay (physical stability); assay type: physicochemical; conditions: 250 μM, pH 7.4, 37° C., 45 hours of incubation
Experimental: The Thioflavin T assay was performed as outlined in Schlein (2017), AAPS J, 19(2), 397-408.
This has traditionally been measured by visual inspection of the sample. However, that kind of measurement is very cumbersome and depending on the observer. Therefore, the application of a small molecule indicator probe is much more advantageous. Thioflavin T (ThT) is such a probe and has a distinct fluorescence signature when binding to fibrils [Naiki et al. (1989) Anal. Biochem. 177, 244-249; LeVine (1999) Methods. Enzymol. 309, 274-284].
The time course for fibril formation can be described by a sigmoidal curve with the following expression [Nielsen et al. (2001) Biochemistry 40, 6036-6046]:
Here, F is the ThT fluorescence at the time t. The constant t0 is the time needed to reach 50% of maximum fluorescence. The two important parameters describing fibril formation are the lag-time calculated by t0−2τ and the apparent rate constant kapp 1/τ.
Few of those intermediates nucleate to form a template onto which further intermediates may assembly and the fibrillation proceeds. The lag-time corresponds to the interval in which the critical mass of nucleus is built up and the apparent rate constant is the rate with which the fibril itself is formed.
Samples are prepared freshly before each assay. The drug substance was solved with 250 μM of the GIP derivative in 8 mM phosphate, 14 mg/mL propylene glycol, 58 mM phenol, pH 7.4. The pH of the sample was adjusted to the desired value using appropriate amounts of concentrated NaOH and HCl. Thioflavin T was added to the samples from a stock solution in H2O to a final concentration of 1 μM.
Sample aliquots of 200 μl were placed in each well of a 96 well microtiter plate (Packard OptiPlate™-96, white polystyrene). Four replica of each sample (corresponding to one test condition) was placed in one column of wells. The plate was sealed with Scotch Pad (Qiagen).
Incubation, shaking and measurement of the ThT fluorescence emission were done in a Fluoroskan Ascent FL fluorescence platereader (Thermo Labsystems). […] Fluorescence measurement was done using excitation through a 444 nm filter and measurement of emission through a 485 nm filter.
Each run was initiated by incubating the plate at the assay temperature for 10 min. The plate was measured every 20 minutes for a desired period of time. Between each measurement, the plate was shaken and heated as described.
After completion of the ThT assay the replica of each sample was pooled and centrifuged at 20000 rpm for 30 minutes at 18° C. The supernatant was filtered through a 0.22 μm filter and an aliquot was transferred to a HPLC vial. The concentration of the filtered sample relative to the initial sample (in percentage) was reported as the recovery.
The measurement points were saved in Microsoft Excel format for further processing and curve drawing and fitting was performed using GraphPad Prism. […] The data points were a mean of the four replica and shown with standard deviation error bars. Only data obtained in the same experiment (i.e. samples on the same plate) were presented in the same graph ensuring a relative measure of fibrillation between experiments.
The data set may be fitted to Eq. (1).

[3] = Chemical stability: HMWP formation by SEC-MS; assay type: physicochemical; conditions: 37° C., 4 weeks, 250 μM, pH 7.4
Experimental: The aim of this study is to determine the chemical stability of GIP derivative compositions. As a measure of stability of the GIP derivative composition, the formation of high molecular weight peptide formation (% HMWP) as a function of time was analysed by size-exclusion chromatography (SEC-MS). Further, the purity loss of the GIP derivative compositions was measured by LCMS. Samples for chemical stability assays were freshly prepared before each assay. […] The pH of the sample was adjusted to the desired value using appropriate amounts of concentrated NaOH and HCl. […] Formation of covalent oligomers (HMWPs) was analysed and identified by a SEC-MS method. […] The LC system was coupled to both a TUV detector operated at 215 nm, 10 Hz and a high resolution QToF mass spectrometer from Waters (Synapt G2S) operated in positive ion mode and m/z range of 100 to 4000 with normal resolution setting. Lock mass correction against Leu-Enkephalin was done every 31 sec. Spectra were processed in MassLynx version 4.1 and MaxEnt deconvoluted.

[4] = Chemical stability: purity loss by LCMS; assay type: physicochemical; conditions: 37° C., 4 weeks, 250 μM, pH 7.4
Experimental: The aim of this study is to determine the chemical stability of GIP derivative compositions. As a measure of stability of the GIP derivative composition, the formation of high molecular weight peptide formation (% HMWP) as a function of time was analysed by size-exclusion chromatography (SEC-MS). Further, the purity loss of the GIP derivative compositions was measured by LCMS. Samples for chemical stability assays were freshly prepared before each assay. […] The pH of the sample was adjusted to the desired value using appropriate amounts of concentrated NaOH and HCl. […] The column oven was kept at 55° C. […] The solvents were pumped from a binary solvent manager system and mixed on the high pressure side in a mixer with a volume of 50 μl. The gradient and flow can be seen in table 4: [table] A Flow-through-needle auto sampler at 8° C. was used to inject 1 μl of each sample. The effluent passed through a tunable UV detector (TUV) tuned to 215 nm. The outlet from the UV detector passed to the electrospray source of the mass spectrometer. The capillary was held at 3 kV and dry nitrogen gas was purged at a flow of 750 I/h and a temperature of 250° C. The source block was kept at 120° C. and the large bore cone was flushed with nitrogen at 50 I/h with standard electrode potentials on the rest of the instrument. The MS was operated in high resolution mode with a nominal resolution of 35000. The ToF analyser was operated in ADC mode with an m/z window from 100-2000.

[5] = assay type: physicochemical; conditions: pH 7.4

| Compound | half-life of hGIP(1-42) measured in man ([1]; Deacon et al., J. Clin. Endocrinol. & Metab.) [min] | half-life of hGIP(1-42) measured in man ([1]; Meier et al., Diabetes) | ThT Assay Lag time [2] [h] | HMWP formation (%/month) [3] [%/month] | Purity loss (%/month) [4] [%/month] | solubility at given pH [5] |
| --- | --- | --- | --- | --- | --- | --- |
| CC[C@H](C)[C@H](NC(=O)[C@H](CO)NC(=O)[C@H](Cc1ccc(O)cc1)NC(=O)[C@H](CC(=O)O)NC(=O)[C@H](CO)NC(=O)[C@@H](NC(=O)[C@H](Cc1ccccc1)NC(=O)[C@@H](NC(=O)CNC(=O)[C@H](CCC(=O)O)NC(=O)[C@H](C)NC(=O)[C@@H](N)Cc1ccc(O)cc1)[C@@H](C)O)[C@@H](C)CC)C(=O)N[C@@H](C)C(=O)N[C@@H](CCSC)C(=O)N[C@@H](CC(=O)O)C(=O)N[C@@H](CCCCN)C(=O)N[C@H](C(=O)N[C@@H](Cc1c[nH]cn1)C(=O)N[C@@H](CCC(N)=O)C(=O)N[C@@H](CCC(N)=O)C(=O)N[C@@H](CC(=O)O)C(=O)N[C@@H](Cc1ccccc1)C(=O)N[C@H](C(=O)N[C@@H](CC(N)=O)C(=O)N[C@@H](Cc1c[nH]c2ccccc12)C(=O)N[C@@H](CC(C)C)C(=O)N[C@@H](CC(C)C)C(=O)N[C@@H](C)C(=O)N[C@@H](CCC(N)=O)C(=O)N[C@@H](CCCCN)C(=O)NCC(=O)N[C@@H](CCCCN)C(=O)N[C@@H](CCCCN)C(=O)N[C@@H](CC(N)=O)C(=O)N[C@@H](CC(=O)O)C(=O)N[C@@H](Cc1c[nH]c2ccccc12)C(=O)N[C@@H](CCCCN)C(=O)N[C@@H](Cc1c[nH]cn1)C(=O)N[C@@H](CC(N)=O)C(=O)N[C@H](C(=O)N[C@H](C(=O)N[C@@H](CCC(N)=O)C(=O)O)[C@@H](C)O)[C@@H](C)CC)C(C)C)[C@@H](C)CC [hGIP(1-42), reference compound] | ~7 | about 5 min | 0.33 | 2.0 | 73.1 |  |
| N{1}-acetyl,N{Epsilon-24}-[2-[2-[2-[[2-[2-[2-[[4-[(19-carboxynonadecanoylamino)methyl]cyclohexanecarbonyl]amino]ethoxy]ethoxy]acetyl]amino]ethoxy]ethoxy]acetyl]-[D-Tyr1,Aib2,Nle14,Arg18,Lys24,Pro31]-hGIP(1-31) amide (Ac-[dY][Aib]EGTFISDYSIA[Nle]DKIRQQDFVK([AEEA-AEEA-4‑(aminomethyl)cyclohexanecarbonyl-C20 diacid])WLLAQKP-NH2) [Compound 44] |  |  |  |  |  | **Compound not soluble at given pH. |
